Experimental findings from patent US7767200B2, “Cancer treatment using viruses, fluoropyrimidines and camptothecins” (Wellstat Biologics Corporation, priority 2005, dated 2010) are described below.

Assay [1] concerns human SW620 colon carcinoma cells. Further details: species or system athymic mice. As to conditions: mouse, in vivo.
For assay [2], the system named is human HT1080 fibrosarcoma cells. Further details: species or system athymic mice. As to conditions: mouse, in vivo.

Turning to `O=c1[nH]cc(F)c(=O)[nH]1` [5-FU, 5-fluorouracil], in assay [1], the “Durable CRs, %” value came out at 0%. Further, in assay [2], the “Complete Tumor Responses (CR), %” value was 0%.

Turning to `CCc1c2c(nc3ccc(OC(=O)N4CCC(N5CCCCC5)CC4)cc13)-c1cc3c(c(=O)n1C2)COC(=O)[C@]3(O)CC` [Irinotecan, 7-ethyl-10-[4-(1-piperidino)-1-piperidino]-carbonyloxycamptothecin], the “Durable CRs, %” value in assay [1] amounted to 0%.
